Measured values from US7589080B2, “β-cyclodextrin compositions, and use to prevent transmission of sexually transmitted diseases” (priority 2000, dated 2009).

Assays:
Type in all cases: cell-based
CD4 = test: Flow cytometry of CD4 surface expression
Method: (§1) Flow cytometry was performed as previously described (Orentas and Hildreth, supra, 1993). Briefly, 2×10^5 2-OH-βCD treated or untreated cells in 100 μl PBS containing 5% normal goat serum (NGS) were added to 100 μl of MAb (1-5 μg) and incubated 30 min on ice. In comparative experiments we prefixed the cells with 2% paraformaldehyde in PBS immediately after 2-OH-βCD treatment. Cells were washed with PBS, resuspended in 100 μl of PBS, 5% NGS containing 2 Tg of FITC conjugated-goat anti-mouse IgG (FITC-GAM) and incubated 1 h on ice. Cells were then washed with PBS and fixed with 2% paraformaldehyde followed by analysis on an EPICS Profile II flow cytometer.
(§2) Cholesterol depletion also promoted CXCR4 down-modulation by MAb-induced internalization. A possible explanation for the inhibition of syncytium formation by cholesterol depletion as described above is that CD4, CRs, or both are lost from the cell surface, for example, by extrusion from the membrane in vesicles after loss of cholesterol, or they could be internalized. To explore these possibilities, βCD treated cells were examined for expression of HIV receptors by flow cytometry. […] In contrast, cell surface expression of CXCR4 was reduced by 50% or more in all of the cells after 2-OH-βCD treatment (Table 1).
(§3) In order to determine whether the loss of CXCR4 expression was due to MAb-induced internalization, cells were fixed with 2% paraformaldehyde in PBS immediately after 2-OH-βCD treatment and before staining with MAbs for flow cytometry.

CXCR4 = test: Flow cytometry of CXCR4 surface expression
Method: as §1, §2, §3

HIV-1RF = test: Free-virus mediated syncytium assay (fusion from without); settings: MT2, SupT1, PM1; HIV-1RF >500 ng/ml p24, 3 hr at 37° C
Method: Syncytium assays were carried out essentially as previously described (Hildreth and Orentas, supra, 1989). Briefly, cell lines or PHA blasts were treated with 20 mM 2-OH-βCD in RPMI 1640 or medium alone for 1 hr at 37° C. before washing twice with PBS. The treated cells were then mixed with HIV-1 infected cells, each at density of 2×10^6/ml, in cRPMI and incubated at 37° C. Syncytia were scored and photographed 3 to 6 hr after mixing. For free-virus mediated syncytium assays (“fusion from without”), HIV-1RF from infected PM1 culture supernatants were clarified by 0.45 Tm filtration (p24 concentration greater than 500 ng/ml). 2-OH-βCD-treated and non-treated cell lines were added to the virus preparations and incubated at 37° C. for 3 hr before counting syncytia.
The effect of cholesterol depletion on virus-cell fusion (“fusion from without”) was also determined.

[1] = tested on: CXCR4, CD4 and CD45 on PHA blasts; test: Immunostaining and confocal microscopy of PHA blasts
Method: Cell-surface staining of 2-OH-βCD-treated and untreated cells was performed under saturating conditions. 2-OH-βCD-treated and untreated PHA blasts (3×10^5) were washed in cold PBS and pre-incubated on ice for 15 min in 5% NGS/PBS. Cells were then incubated with MAb 1-5 μg in 5% NGS/PBS 45 min on ice, washed with PBS and then incubated with 2 μg of FITC-GAM in 5% NGS/PBS. The cells were then fixed with 2% paraformaldehyde in PBS and spun onto poly-L-lysine coated slides using cyto-funnels. The pellets were overlaid with 50 μl of 25% glycerol in PBS and a coverslip was positioned over the droplet. The edges of the slides were sealed with nail polish before storing them at 4° C. This staining procedure was also performed with cells prefixed with 2% paraformaldehyde in PBS prior to MAb staining. Viewing of slides was performed with an Olympus IX50 confocal microscope under oil immersion at 100x magnification. Micrographs were acquired onto a Silicon Graphics Workstation with Intervision software. Final images were enhanced on the Silicon Graphics Workstation by two-dimensional deconvolution, and brightness and contrast were adjusted for viewing.
Patchy staining of CXCR4 persisted after 2-OH-βCD treatment whether the cells were fixed before or after mAb staining. […]

[2] = tested on: total cellular cholesterol; test: Cellular cholesterol measurement (cholesterol oxidase fluorimetric assay); settings: 10 to 20 mM for 1 hr at 37° C, then washing
Method: Cellular cholesterol was measured with a sensitive cholesterol oxidase-based fluorimetric assay (Amplex Red Cholesterol Kit) from Molecular Probes (Eugene Oreg.). Cholesterol content of cells was normalized to total cellular protein.
The role of lipid rafts in the HIV-1 fusion process was examined by treating CD4+HIV-susceptible target cells with 2-OH-βCD to deplete membrane cholesterol and disperse lipid rafts.

[3] = H9, 20 mM, fixed with 2% paraformaldehyde immediately after treatment
[4] = H9 cells, 20 mM, not fixed before staining
[5] = MT2 cells, 20 mM, not fixed before staining
[6] = PM1, 20 mM, fixed with 2% paraformaldehyde immediately after treatment
[7] = PM1 cells, 20 mM, not fixed before staining
[8] = SupT1, 20 mM, fixed with 2% paraformaldehyde immediately after treatment
[9] = SupT1 cells, 20 mM, not fixed before staining
[10] = cells fixed immediately after treatment, before MAb staining

In the case of “2-hydroxypropyl-β-cyclodextrin [2-OH-βCD]”, the “CD4 (MCF)” value (CD4; [3]) is reported as 50 MCF, the “CD4 (MCF)” value (CD4; [4]) is reported as 20.9 MCF and the “CD4 (MCF)” value (CD4; [5]) is reported as 62.2 MCF. The “CD4 expression after treatment” value (CD4; PHA blasts or any of the cell lines tested) was “did not change”, the “CD4 (MCF)” value (CD4; [6]) was 129 MCF and the “CD4 (MCF)” value (CD4; [7]) was 85.9 MCF. The “CD4 (MCF)” value (CD4; [8]) was 213 MCF, the “CD4 (MCF)” value (CD4; [9]) was 188.3 MCF and the “CD4 expression on the cell surface” value (CD4; [10]) was “remained unchanged”. The “CXCR4 (MCF)” value (CXCR4; [3]) was 55 MCF, the “CXCR4 (MCF)” value (CXCR4; [4]) was 6.7 MCF and the “CXCR4 (MCF)” value (CXCR4; [5]) was 16.7 MCF. For the same substance, the “CXCR4 (MCF)” value (CXCR4; [6]) was 64 MCF, the “CXCR4 (MCF)” value (CXCR4; [7]) was 3.1 MCF and the “CXCR4 (MCF)” value (CXCR4; [8]) was 91 MCF. For the same substance, the “CXCR4 (MCF)” value (CXCR4; [9]) was 15.0 MCF, the “Reduction of cell surface expression of CXCR4” value (CXCR4; all of the cells, not fixed before staining) was at least 50% and the “Anti-CXCR4 MAb staining compared to control cells” value (CXCR4; cells fixed and permeabilized after the MAb binding step) was “no significant reduction”. The “CXCR4 expression on the cell surface” value (CXCR4; [10]) was “remained unchanged”, the “Syncytium formation on exposure to free virus” value (HIV-1RF) was “no syncytium formation” and the “Distribution of CXCR4 on the cell surface” value ([1]; PHA blasts after cholesterol depletion) was “not significantly redistributed”. The “Distribution of CD4 and CD45 on the cell surface” value ([1]; PHA blasts after treatment) was “unchanged” and the “Depletion of total cellular cholesterol” value [2] was “greater than 70%”.
